Results reported in US20220233565A1, “REDUCED NICOTINAMIDERIBOSIDES FOR TREATING/PREVENTING SKELETAL MUSCLE DISEASE” (SOCIETE DES PRODUITS NESTLE S.A., priority 2019, published 2022).
Entries after “also recorded” stand apart in the source; their conditions may differ. Where a name gives a salt, the structure may show the parent alone. One block for each molecule: values may come before it.

Tests used:
adenosine kinase (AK) = target: T1, adenosine kinase (AK) (Mus musculus, UniProt P55264); test: NRH-induced NAD+ synthesis under adenosine kinase inhibition; type: cell-based; set-up: effect of AK inhibitor on the action of NRH (NAD+ synthesis): dose or concentration left out as unconfirmed; settings: for effect of AK inhibitor on the action of NRH (NAD+ synthesis): AML12 cells, inhibitor 1 hour prior to NRH (5-IT), NAD+ 1 hour later
T1 construct: endogenous in cells; host or cells: AML12 cells
Protocol: FIG. 4. […] AML12 cells were treated with an adenosine kinase inhibitor (5-IT; […]) for 1 hour prior to NRH treatment at the doses indicated. Then, 1 hour later, acidic extracts were obtained to measure NAD^+ levels. All values in the figure are expressed as mean+/−SEM of 3 independent experiments. * indicates statistical difference at p<0.05 vs. the respective vehicle treated group.

[1] = Stability in isolated mouse plasma; type: in vitro ADME; settings: for generation of NAM in plasma / level of spiked compound in plasma: isolated mouse plasma, 2 h of incubation
Description: (§1) Levels of NRH and other NAD-related metabolites in biological samples were obtained by using a cold liquid-liquid extraction using a mixture of methanol:water:chloroform in 5:3:5 (v/v), from which the polar phase was recovered for hydrophilic interaction ultra-high performance liquid chromatography mass spectrometry (UHPLC-MS) analysis. The UHPLC consisted of a binary pump, a cooled autosampler, and a column oven (DIONEX Ultimate 3000 UHPLC+ Focused, Thermo Scientific), connected to a triple quadrupole spectrometer (TSQ Vantage, Thermo Scientific) equipped with a heated electrospray ionisation (H-ESI) source. Of each sample, 2 μL were injected into the analytical column (2.1 mm×150 mm, 5 μm pore size, 200 Å HILICON iHILIC®-Fusion(P)), guarded by a pre-column (2.1 mm×20 mm, 200 Å HILICON iHILIC®-Fusion(P) Guard Kit) operating at 35° C. The mobile phase (10 mM ammonium acetate at pH 9, A, and acetonitrile, B) was pumped at 0.25 mL/min flow rate over a linear gradient of decreasing organic solvent (0.5-16 min, 90-25% B), followed by re-equilibration for a total run time of 30 min. The MS operated in positive mode at 3500 V with multiple reaction monitoring (MRM). The software Xcalibur v4.1.31.9 (Thermo Scientific) was used for instrument control, data acquisition and processing. Retention time and mass detection was confirmed by authentic standards.
(§2) NR degradation to NAM has been proposed as a limitation for its pharmacological efficacy. To evaluate whether NRH was also susceptible to degradation to NAM, we spiked NRH or NR in isolated mouse plasma. […] We also tested the stability of NRH in other matrixes. […] Finally, we also certified NRH stability in water (pH=7, at room temperature) for 48 h.

NRK1 = test: NAD+ levels in primary hepatocytes from control or NRK1 knockout mice; type: cell-based; settings: 1 hour of treatment
Description: (§3) The action of NRH was also NAMPT-independent, based on experiments using FK866, a NAMPT inhibitor. If NRH led to NAD+ synthesis via the formation of NMNH, this hypothetical path would require the phosphorylation of NRH into NMNH. Given the essential and rate-limiting role of NRK1 in NR phosphorylation, we wondered whether the ability of NRH to boost NAD+ levels was NRK1 dependent. To answer this question, we evaluated NRH action in primary hepatocytes from either control or NRK1 knockout (NRK1KO) mice. […] Further, they rule out the possibility that NRH-induced NAD+ […] is driven by NRH oxidation into NR.

NAD+ synthesis = test: Intracellular NAD+ related metabolites after treatment (UHPLC-MS); type: cell-based; settings: for intracellular detection of NRH and NMNH: 5 minutes after treatment
Description: as §1
A path in which NRH would be converted to NMNH, then to NADH and this would be finally oxidized to NAD+.

[2] = Oral gavage in mice: hepatic NAD+ and plasma metabolites; type: in vivo; settings: for administered compound in plasma: 1 h after oral administration
Protocol: 8 week-old C57BI/6NTac mice were orally gavaged with either saline (as vehicle), NR (500 mg/kg) or NRH (500 mg/kg). After 1 hour, liver, skeletal muscle and kidney NAD levels were evaluated. All results are expressed as mean+/−SEM of n=5 mice per group. * indicates statistical difference at p<0.05 vs. vs. saline-treated mice. # indicates statistical difference at p<0.05 vs. NR treated mice.
as §1
Oral administration of NRH led to very similar results to those observed after IP administration. […] NRH was detectable in plasma 1 h after oral administration. In contrast, NR levels were undetectable at 1 h after NR administration.

[3] = Intraperitoneal injection in mice: tissue NAD+ and circulating metabolites; type: in vivo; settings: for NAM levels in circulation / NAD+ levels in kidney / NAD+ levels in liver / NAD+ levels in muscle: IP 500 mg/kg; for NAD+ levels in kidney / NAD+ levels in liver / NAD+ levels in muscle: after 1 h
Description: as §1
The above results prompted us to test whether NRH could act as an effective NAD+ precursor in vivo. For this, we first intraperitoneally (IP) injected mice with either NR or NRH (500 mg/kg). […] Importantly, NRH was detectable in circulation after IP injection.

Stability in water = type: physicochemical; settings: pH=7, room temperature
Protocol: as §2

[4] = Oral gavage in mice: NRH levels in tissues; type: in vivo; settings: 2 hours after gavage (250 mg/kg)
Protocol: 8 week-old C57BI/6NTac mice were orally gavaged with either saline (as vehicle), and NRH (250 mg/kg). After 2 hours, liver, skeletal muscle and kidney NRH levels were evaluated. All results are expressed as mean+/−SEM of n=4 mice per group, as areas under the signal by LC-MS analysis, corrected by total protein amount of tissue.
as §1

[5] = Stability in FBS supplemented media; type: in vitro ADME
Protocol: as §2

AML12 hepatocytes = test: Intracellular NAD+ levels in AML12 hepatocytes (dose-response and time course); type: cell-based
Protocol: Starting at levels at a concentration of 10 μM, NRH achieved similar increases in intracellular NAD+ levels to those reached with NR at 50-fold higher concentrations. NRH achieved maximal effects on NAD+ synthesis around the millimolar range, managing to increase intracellular NAD+ levels by more than 10-fold.
NRH actions were also extremely fast, as significant increases in NAD+ levels were observed within 5 minutes after NRH treatment.
Even at such relatively low dose, NRH achieved similar increases in intracellular NAD+ levels to those reached with NR at 50-fold higher concentrations. NRH achieved maximal effects on NAD+ synthesis around the millimolar range, managing to increase intracellular NAD+ levels by more than 10-fold.
NRH actions were also extremely fast (FIG. 3), as significant increases in NAD+ levels were observed within 5 minutes after NRH treatment.

INS1-cells = test: NAD+ levels in INS1-cells after NRH treatment; type: cell-based
Protocol: (§4) The ability of NRH to potently increase NAD+ was tested as well in other cell type models.

NAMPT = target: T2, NAMPT (Mus musculus, UniProt Q99KQ4); test: NRH action in presence of NAMPT inhibitor FK866; type: cell-based; settings: with FK866, a NAMPT inhibitor
T2 construct: endogenous in cells
Description: as §3

3T3 fibroblasts = test: NAD+ levels in 3T3 fibroblasts after NRH treatment; type: cell-based
Protocol: as §4

C2C12 myotubes = test: NAD+ levels in C2C12 myotubes after NRH treatment; type: cell-based
Protocol: as §4

[6] = system: equilibrative nucleoside transporters (ENTs); test: NRH as extracellular NAD+ precursor under blockage of ENT-mediated transport (NBTI); type: cell-based; settings: in the presence of NBTI
Description: In order to understand the exact path by which NRH synthesizes NAD+, we initially evaluated whether NRH, could be transported into the cell by equilibrative nucleoside transporters (ENTs).

NMNAT = test: NRH-induced NAD+ synthesis under NMNAT inhibition (gallotannin); type: cell-based
Description: As a follow-up step, NMNAT enzymes could catalyze the transition from NMNH to NADH. […] Yet, part of the NRH action remained after gallotannin treatment when NRH was used at maximal doses.

T1 sequence (P55264 whole entry): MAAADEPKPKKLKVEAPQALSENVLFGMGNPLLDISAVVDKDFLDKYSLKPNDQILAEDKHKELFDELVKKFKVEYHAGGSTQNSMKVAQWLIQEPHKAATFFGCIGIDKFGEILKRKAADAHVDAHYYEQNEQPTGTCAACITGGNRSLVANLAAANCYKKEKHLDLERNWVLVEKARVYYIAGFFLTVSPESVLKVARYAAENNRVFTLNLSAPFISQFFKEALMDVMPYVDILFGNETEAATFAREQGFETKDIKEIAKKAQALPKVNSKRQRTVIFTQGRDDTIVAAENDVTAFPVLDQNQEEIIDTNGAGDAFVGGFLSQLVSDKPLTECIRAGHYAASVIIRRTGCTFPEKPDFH
T2 sequence (Q99KQ4 whole entry): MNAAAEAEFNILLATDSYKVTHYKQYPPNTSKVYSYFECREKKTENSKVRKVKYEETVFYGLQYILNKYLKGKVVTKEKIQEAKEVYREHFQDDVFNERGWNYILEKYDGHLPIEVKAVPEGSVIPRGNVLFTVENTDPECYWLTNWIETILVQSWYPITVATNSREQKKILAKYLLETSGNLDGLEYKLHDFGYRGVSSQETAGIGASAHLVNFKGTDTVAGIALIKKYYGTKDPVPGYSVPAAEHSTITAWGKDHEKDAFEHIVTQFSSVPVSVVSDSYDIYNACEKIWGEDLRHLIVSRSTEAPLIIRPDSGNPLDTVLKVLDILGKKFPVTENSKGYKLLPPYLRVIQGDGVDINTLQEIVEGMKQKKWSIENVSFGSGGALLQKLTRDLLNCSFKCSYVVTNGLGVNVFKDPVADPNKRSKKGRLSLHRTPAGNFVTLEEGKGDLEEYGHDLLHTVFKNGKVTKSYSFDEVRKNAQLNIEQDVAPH

Compound: Nc1ncnc2c1c(I)cn2[C@@H]1O[C@H](CO)[C@@H](O)[C@H]1O [5-IT, 5-iodotubercidin]
effect of AK inhibitor on the action of NRH (NAD+ synthesis) (adenosine kinase (AK)): fully ablated
formation of NR and NMN after NRH treatment (adenosine kinase (AK); with AK inhibitor): prevented

effect of AK inhibitor on the action of NRH (NAD+ synthesis) (adenosine kinase (AK)): confirmed
Compound: Nc1ncnc2nc(-c3ccc(N4CCOCC4)nc3)cc(-c3cccc(Br)c3)c12 [ABT-702]

generation of NAM in plasma [1]: increase in NAM
level of spiked compound in plasma [1]: decayed
NAD+ levels in NRK1KO derived primary hepatocytes (NRK1): failed to increase NAD+ levels
administered compound in plasma [2]: undetectable
circulating NAM ([2]; oral administration): large increases
NAM levels in circulation [3]: highly increased
Compound: NC(=O)c1ccc[n+]([C@@H]2O[C@H](CO)[C@@H](O)[C@H]2O)c1 [NR, 1-b-D-ribofuranosyl-3-pyridinecarboxamide salt, reference compound]
intracellular detection of NRH and NMNH (NAD+ synthesis): not
NAD+ levels in kidney [3]: increased
NAD+ levels in liver [3]: increased
NAD+ levels in muscle [3]: increased

Compound: NC(=O)C1=CN([C@@H]2O[C@H](CO)[C@@H](O)[C@H]2O)C=CC1 [NRH, reduced nicotinamide riboside]
time for which stability in water was certified (Stability in water): 48 h
NRH in kidney [4]: found intact, in high levels
NRH in liver [4]: found intact, in high levels
NRH in muscle [4]: found intact, in high levels
degradation to NAM in FBS supplemented media [5]: did not degrade to NAM
NR production in plasma ([1]; incubation in isolated plasma): did not lead to NR production
generation of NAM in plasma [1]: not generated; also recorded: did not significantly alter NAM levels
level of spiked compound in plasma [1]: remained stable
NAD+ levels in NRK1KO derived primary hepatocytes (NRK1): not affected by NRK1 deficiency
intracellular detection of NRH and NMNH (NAD+ synthesis): could be detected
intracellular NR and NMN (NAD+ synthesis; after treatment, compared with NR): greater than that triggered by NR itself
ability to increase intracellular NAD+ compared with NR (AML12 hepatocytes; AML12 hepatocytes): better than NR; also recorded: superior to that of NR
time to significant increase in NAD+ levels after treatment (AML12 hepatocytes; AML12 hepatocytes (FIG. 3)): ≤ 5 min
increase of intracellular NAD+ levels (maximal effect) (AML12 hepatocytes; AML12 hepatocytes, around the millimolar range): more than 10 fold
concentration at which NAD+ levels were significantly increased (AML12 hepatocytes; AML12 hepatocytes, dose-response (FIG. 2)): 10 µM
fold higher NR concentration needed for similar increase in intracellular NAD+ (AML12 hepatocytes; NRH at 10 μM versus NR): 50 fold
generation of NMNH, NADH and NAD+ from NRH upon inhibition of AK (adenosine kinase (AK); metabolomic analyses): fully blunted
NAD+ levels (INS1-cells): highly elevated
administered compound in plasma [2]: detectable
NRH concentration in plasma ([2]; after oral gavage): 11.16 ± 1.74 µM
effect on hepatic NAD+ levels compared with NR ([2]; oral administration): more potent effect
dependence of action on NAMPT (NAMPT): NAMPT-independent
NAM levels in circulation [3]: only a very mild increase
NAD+ levels in kidney [3]: increased
NAD+ levels in liver [3]: increased
NAD+ levels in muscle [3]: increased
NRH in circulation ([3]; after IP injection): detectable
NR in circulation ([3]; after IP injection, compared with NR injection): much higher levels than those detected after NR injection itself
NAD+ levels (3T3 fibroblasts): highly elevated
NAD+ levels (C2C12 myotubes): highly elevated
capacity as extracellular NAD+ precursor under ENT blockage [6]: largely lost its capacity

Compound: O=C(OC[C@H]1O[C@@H](OC(=O)c2cc(O)c(O)c(OC(=O)c3cc(O)c(O)c(O)c3)c2)[C@H](OC(=O)c2cc(O)c(O)c(OC(=O)c3cc(O)c(O)c(O)c3)c2)[C@@H](OC(=O)c2cc(O)c(O)c(OC(=O)c3cc(O)c(O)c(O)c3)c2)[C@@H]1OC(=O)c1cc(O)c(O)c(OC(=O)c2cc(O)c(O)c(O)c2)c1)c1cc(O)c(O)c(OC(=O)c2cc(O)c(O)c(O)c2)c1 [gallotannin]
effect of NMNAT inhibitor on NAD+ synthesis after NRH treatment (NMNAT; NRH at maximal doses (0.5 mM)): largely compromised
effect of NMNAT inhibitor on NRH action (NMNAT; NRH at submaximal doses): totally blocked
